Measured values published in PubChem BioAssay (NCI).
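Dose response: 5 concentrations. Exposure: 48 h. Format: 96-well plates. Endpoint: linear interpolation; highest concentration if not reached. TGI: concentration producing complete growth inhibition.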

Key:
Experiment in all cases: NCI-60 cell line screen, 48 h
786-0 renal = system: 786-0 renal
A498 renal = system: A498 renal
A549 NSCLC = system: A549 NSCLC
ACHN renal = system: ACHN renal
CAKI-1 renal = system: CAKI-1 renal
CCRF-CEM leukemia = system: CCRF-CEM leukemia
COLO 205 colon = system: COLO 205 colon
DLD-1 colon = system: DLD-1 colon
DMS 114 small cell lung = system: DMS 114 small cell lung
DMS 273 small cell lung = system: DMS 273 small cell lung
EKVX NSCLC = system: EKVX NSCLC
HCC-2998 colon = system: HCC-2998 colon
HCT-116 colon = system: HCT-116 colon
HCT-15 colon = system: HCT-15 colon
HOP-62 NSCLC = system: HOP-62 NSCLC
HOP-92 NSCLC = system: HOP-92 NSCLC
HT29 colon = system: HT29 colon
IGROV1 ovarian = system: IGROV1 ovarian
K-562 leukemia = system: K-562 leukemia
KM12 colon = system: KM12 colon
KM20L2 colon = system: KM20L2 colon
LOX IMVI melanoma = system: LOX IMVI melanoma
LXFL 529 NSCLC = system: LXFL 529 NSCLC
M14 melanoma = system: M14 melanoma
M19-MEL melanoma = system: M19-MEL melanoma
MALME-3M melanoma = system: MALME-3M melanoma
MOLT-4 leukemia = system: MOLT-4 leukemia
NCI-H226 lung = system: NCI-H226 lung
NCI-H23 lung = system: NCI-H23 lung
NCI-H460 lung = system: NCI-H460 lung
NCI-H522 lung = system: NCI-H522 lung
OVCAR-3 ovarian = system: OVCAR-3 ovarian
OVCAR-4 ovarian = system: OVCAR-4 ovarian
OVCAR-5 ovarian = system: OVCAR-5 ovarian
OVCAR-8 ovarian = system: OVCAR-8 ovarian
RPMI-8226 leukemia = system: RPMI-8226 leukemia
RXF 393 renal = system: RXF 393 renal
SF-268 CNS = system: SF-268 CNS
SF-295 CNS = system: SF-295 CNS
SF-539 CNS = system: SF-539 CNS
SK-MEL-2 melanoma = system: SK-MEL-2 melanoma
SK-MEL-28 melanoma = system: SK-MEL-28 melanoma
SK-MEL-5 melanoma = system: SK-MEL-5 melanoma
SK-OV-3 ovarian = system: SK-OV-3 ovarian
SN12C renal = system: SN12C renal
SNB-19 CNS = system: SNB-19 CNS
SNB-75 CNS = system: SNB-75 CNS
SNB-78 CNS = system: SNB-78 CNS
SW-620 colon = system: SW-620 colon
TK-10 renal = system: TK-10 renal
U251 CNS = system: U251 CNS
UACC-257 melanoma = system: UACC-257 melanoma
UACC-62 melanoma = system: UACC-62 melanoma
UO-31 renal = system: UO-31 renal
XF 498 CNS = system: XF 498 CNS
HL-60(TB) leukemia = system: HL-60(TB) leukemia
HOP-18 NSCLC = system: HOP-18 NSCLC
SR leukemia = system: SR leukemia

Measured: TGI

CNC(=O)N(CCCC(NC(C)=O)C(=O)NCc1ccccc1)Cc1ccccc1 (stereo not drawn)
not listed: HL-60(TB) leukemia | HOP-18 NSCLC | SR leukemia
> 100 µM: all other assays above

COc1ccc(-c2nnc3c4ccccc4sn23)cc1
93.8 µM: DMS 114 small cell lung
87.3 µM: SNB-75 CNS
45.4 µM: HL-60(TB) leukemia
80.5 µM: UO-31 renal
61.5 µM: OVCAR-3 ovarian
82.5 µM: RXF 393 renal
83.9 µM: HOP-18 NSCLC
33.7 µM: CCRF-CEM leukemia
73.8 µM: UACC-257 melanoma
not listed: 786-0 renal | A498 renal | CAKI-1 renal | DLD-1 colon | MALME-3M melanoma | NCI-H226 lung | NCI-H522 lung | SF-295 CNS | SK-OV-3 ovarian | XF 498 CNS
> 100 µM: all other assays above

CC1=N/C(=C\c2ccc(N)cc2)C(=O)N1Nc1nnc(NN2C(=O)/C(=C/c3ccc(N)cc3)N=C2C)c2ccccc12
81.5 µM: KM12 colon
41.7 µM: NCI-H522 lung
69.3 µM: SF-295 CNS
56.1 µM: HL-60(TB) leukemia
64.3 µM: HOP-62 NSCLC
56.5 µM: NCI-H226 lung
not listed: CAKI-1 renal | DMS 114 small cell lung | HCC-2998 colon | MALME-3M melanoma | OVCAR-3 ovarian | SK-MEL-2 melanoma | SK-OV-3 ovarian | SNB-78 CNS | TK-10 renal | UO-31 renal | XF 498 CNS
> 100 µM: all other assays above

O=C(CSc1nc(-c2ccccc2)c(-c2ccccc2)[nH]1)N/N=C/c1ccc([N+](=O)[O-])cc1
31.9 µM: SN12C renal
27.9 µM: DMS 273 small cell lung
27.5 µM: U251 CNS
31.2 µM: SK-MEL-28 melanoma
33.7 µM: HOP-62 NSCLC
32.8 µM: NCI-H226 lung
29.3 µM: HOP-92 NSCLC
58.8 µM: OVCAR-4 ovarian
30 µM: OVCAR-3 ovarian
39.2 µM: SF-268 CNS
30.5 µM: 786-0 renal
61.3 µM: CCRF-CEM leukemia
30.4 µM: LOX IMVI melanoma
30.7 µM: COLO 205 colon
> 100 µM: SR leukemia
71.1 µM: HL-60(TB) leukemia
30.8 µM: M19-MEL melanoma
47.8 µM: SNB-75 CNS
33.8 µM: IGROV1 ovarian
29.5 µM: UO-31 renal
23.2 µM: KM20L2 colon
35.3 µM: SK-OV-3 ovarian
92.6 µM: ACHN renal
32.7 µM: HCT-116 colon
39.4 µM: TK-10 renal
43.2 µM: NCI-H460 lung
55.8 µM: DMS 114 small cell lung
28.9 µM: NCI-H522 lung
52.1 µM: RPMI-8226 leukemia
28.1 µM: HCT-15 colon
29.2 µM: A498 renal
31.6 µM: KM12 colon
48.5 µM: MOLT-4 leukemia
36 µM: UACC-257 melanoma
62.5 µM: SNB-78 CNS
36.1 µM: SF-295 CNS
38.5 µM: DLD-1 colon
33.9 µM: NCI-H23 lung
26.9 µM: SK-MEL-2 melanoma
28 µM: XF 498 CNS
38.3 µM: LXFL 529 NSCLC
29.9 µM: SF-539 CNS
33.3 µM: MALME-3M melanoma
25.4 µM: OVCAR-8 ovarian
31.1 µM: M14 melanoma | SK-MEL-5 melanoma
35.8 µM: HT29 colon
57.5 µM: A549 NSCLC
